Data taken from the CheMixHub viscosity set.

Assay: xn = mol fraction of the nth substance listed

CCCCCCn1cc[n+](C)c1.F[B-](F)(F)F + CC(C)O
101 kPa
Conditions	viscosity [mPa·s]
293.15 K, x1 = 0.7711	78.36
313.15 K, x1 = 0.08354	1.965
323.15 K, x1 = 0.238	3.035
323.15 K, x1 = 0.8507	28.15

COC(=O)OC + CC(C)O
101.3 kPa
Conditions	viscosity [mPa·s]
293.15 K, x1 = 0.0526	1.968
293.15 K, x1 = 0.0934	1.706
293.15 K, x1 = 0.2033	1.212
293.15 K, x1 = 0.3129	0.943
293.15 K, x1 = 0.4065	0.817
293.15 K, x1 = 0.5	0.74
293.15 K, x1 = 0.6079	0.686
293.15 K, x1 = 0.7026	0.647
293.15 K, x1 = 0.8048	0.609
293.15 K, x1 = 0.9008	0.593
293.15 K, x1 = 0.9507	0.601
298.15 K, x1 = 0.0498	1.733
298.15 K, x1 = 0.0979	1.454
298.15 K, x1 = 0.2031	1.046
298.15 K, x1 = 0.2999	0.844
298.15 K, x1 = 0.3972	0.74
298.15 K, x1 = 0.4892	0.69
298.15 K, x1 = 0.5938	0.654
298.15 K, x1 = 0.6971	0.625
298.15 K, x1 = 0.7983	0.589
298.15 K, x1 = 0.9012	0.567
298.15 K, x1 = 0.9451	0.567
303.15 K, x1 = 0.0437	1.537
303.15 K, x1 = 0.1028	1.287
303.15 K, x1 = 0.2013	0.992
303.15 K, x1 = 0.3062	0.802
303.15 K, x1 = 0.384	0.713
303.15 K, x1 = 0.4951	0.642
303.15 K, x1 = 0.5998	0.606
303.15 K, x1 = 0.7053	0.581
303.15 K, x1 = 0.8047	0.562
303.15 K, x1 = 0.9062	0.545
303.15 K, x1 = 0.937	0.542
313.15 K, x1 = 0.0507	1.147
313.15 K, x1 = 0.0997	1.005
313.15 K, x1 = 0.1984	0.799
313.15 K, x1 = 0.2975	0.668
313.15 K, x1 = 0.4001	0.592
313.15 K, x1 = 0.4884	0.553
313.15 K, x1 = 0.5959	0.522
313.15 K, x1 = 0.7017	0.506
313.15 K, x1 = 0.8014	0.494
313.15 K, x1 = 0.9053	0.49
313.15 K, x1 = 0.9492	0.491

CNc1ccccc1 + CCC(=O)O
308.15 K, 101.33 kPa
Conditions	viscosity [mPa·s]
x2 = 0.1405	1.689
x2 = 0.2649	1.817
x2 = 0.3831	1.959
x2 = 0.4886	2.058
x2 = 0.5912	2.143
x2 = 0.6846	2.115
x2 = 0.7714	1.931
x2 = 0.8525	1.631
x2 = 0.8913	1.45
x2 = 0.9291	1.226
x2 = 0.9645	1.053

COC(=O)OC + CCC(C)O
101.3 kPa
Conditions	viscosity [mPa·s]
293.15 K, x1 = 0.0505	2.908
293.15 K, x1 = 0.0986	2.37
293.15 K, x1 = 0.2131	1.522
293.15 K, x1 = 0.2801	1.235
293.15 K, x1 = 0.4092	0.94
293.15 K, x1 = 0.511	0.83
293.15 K, x1 = 0.6172	0.753
293.15 K, x1 = 0.7072	0.696
293.15 K, x1 = 0.7997	0.637
293.15 K, x1 = 0.8229	0.621
293.15 K, x1 = 0.9518	0.595
298.15 K, x1 = 0.0572	2.399
298.15 K, x1 = 0.0994	1.991
298.15 K, x1 = 0.1958	1.354
298.15 K, x1 = 0.3029	0.991
298.15 K, x1 = 0.3339	0.926
298.15 K, x1 = 0.5075	0.756
298.15 K, x1 = 0.6051	0.707
298.15 K, x1 = 0.7037	0.641
298.15 K, x1 = 0.808	0.569
298.15 K, x1 = 0.9046	0.531
298.15 K, x1 = 0.9523	0.542
303.15 K, x1 = 0.0573	1.931
303.15 K, x1 = 0.0842	1.728
303.15 K, x1 = 0.1936	1.195
303.15 K, x1 = 0.2981	0.943
303.15 K, x1 = 0.3926	0.809
303.15 K, x1 = 0.4938	0.709
303.15 K, x1 = 0.59	0.632
303.15 K, x1 = 0.6561	0.594
303.15 K, x1 = 0.7945	0.549
303.15 K, x1 = 0.8916	0.547
303.15 K, x1 = 0.9483	0.546
313.15 K, x1 = 0.0498	1.512
313.15 K, x1 = 0.1005	1.289
313.15 K, x1 = 0.2009	0.975
313.15 K, x1 = 0.2952	0.795
313.15 K, x1 = 0.4047	0.669
313.15 K, x1 = 0.5109	0.6
313.15 K, x1 = 0.6072	0.561
313.15 K, x1 = 0.6982	0.529
313.15 K, x1 = 0.7992	0.502
313.15 K, x1 = 0.8977	0.486
313.15 K, x1 = 0.9583	0.486

ClC(Cl)C(Cl)Cl + CCCC(=O)OCC
viscosity [mPa·s], 101.3 kPa
Conditions	308.15 K	318.15 K
x2 = 0.0477	1.326	1.209
x2 = 0.1018	1.243	1.135
x2 = 0.2004	1.11	1.019
x2 = 0.2603	1.04	0.957
x2 = 0.3965	0.906	0.837
x2 = 0.4979	0.824	0.764
x2 = 0.6073	0.753	0.699
x2 = 0.6955	0.701	0.652
x2 = 0.8023	0.649	0.605
x2 = 0.9007	0.61	0.569
x2 = 0.9705	0.585	0.547

COC(=O)OC + CCCCCC
Conditions	viscosity [mPa·s]
298.15 K, 101 kPa, x1 = 0.0961	0.2912

COCCOCCOC + CCCCCC
viscosity [mPa·s], 101.33 kPa
Conditions	x1 = 0.1017	x1 = 0.2006	x1 = 0.3006	x1 = 0.3974	x1 = 0.4983	x1 = 0.4984	x1 = 0.5986	x1 = 0.6954	x1 = 0.8011	x1 = 0.8957
298.15 K	0.326	0.362	0.407	0.455	–	0.52	0.584	0.662	0.761	0.868
303.15 K	0.31	0.344	0.385	0.43	–	0.49	0.548	0.62	0.71	0.806
308.15 K	0.294	0.324	0.362	0.404	0.461	–	0.512	0.576	0.657	0.75
313.15 K	0.28	0.308	0.345	0.383	0.434	–	0.482	0.541	0.616	0.699
318.15 K	0.268	0.285	0.326	0.363	0.41	–	0.457	0.511	0.579	0.657

ClC(Cl)C(Cl)Cl + CCCCCC
303.15 K, 101 kPa
Conditions	viscosity [mPa·s]
x1 = 0.115	0.316
x1 = 0.2303	0.363
x1 = 0.2991	0.411
x1 = 0.4277	0.516
x1 = 0.5521	0.633
x1 = 0.6234	0.71
x1 = 0.7182	0.83
x1 = 0.8039	0.966
x1 = 0.8856	1.133
x1 = 0.9344	1.256

COCCOCCOC + CCCCCCC
viscosity [mPa·s], 101.33 kPa
Conditions	x1 = 0.0978	x1 = 0.197	x1 = 0.2958	x1 = 0.3834	x1 = 0.4946	x1 = 0.594	x1 = 0.6956	x1 = 0.7955	x1 = 0.8992
298.15 K	0.407	0.436	0.471	0.508	0.562	0.619	0.689	0.768	0.871
303.15 K	0.386	0.412	0.444	0.478	0.527	0.58	0.643	0.714	0.807
308.15 K	0.367	0.39	0.421	0.451	0.5	0.545	0.602	0.668	0.751
313.15 K	0.351	0.371	0.398	0.426	0.468	0.513	0.566	0.627	0.7
318.15 K	0.333	0.354	0.378	0.404	0.443	0.484	0.532	0.587	0.656
